Laboratory results reported in patent publication US20160221989A1, “N-Acylpyrrolidine Ether Tropomyosin-Related Kinase Inhibitors” (Pfizer Inc., priority 2014, published 2016).

target: T1, TRKA (Homo sapiens, UniProt P04629); assay: Isolated TRK enzyme assay (HTRF KinEASE-TK kit, PV3144 TrkA enzyme assay); type: biochemical; conditions: recombinant His-tagged cytoplasmic domain aa 441-796, 4 nM enzyme, 40 uM ATP, 35 min, arithmetic mean where more than one reading
T1 construct: aa 441-; 4 nM; 40 uM; 35 min; (NTRK1); 796; His; purchased Invitrogen PV3144
T1 sequence (P04629 441-796): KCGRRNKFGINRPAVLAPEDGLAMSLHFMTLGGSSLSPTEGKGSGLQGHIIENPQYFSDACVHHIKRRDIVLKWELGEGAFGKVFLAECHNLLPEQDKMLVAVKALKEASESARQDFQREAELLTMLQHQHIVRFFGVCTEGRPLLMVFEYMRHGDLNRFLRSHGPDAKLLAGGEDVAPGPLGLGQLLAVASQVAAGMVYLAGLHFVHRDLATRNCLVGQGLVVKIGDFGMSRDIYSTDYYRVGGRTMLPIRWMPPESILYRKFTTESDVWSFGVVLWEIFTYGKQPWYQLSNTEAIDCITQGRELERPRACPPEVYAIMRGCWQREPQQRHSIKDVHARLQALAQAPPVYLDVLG
Protocol: Isolated TRK Enzyme assays use the HTRF KinEASE-TK kit (Cisbio Cat#62TKOPEJ) with recombinant His-tagged cytoplasmic domains of TRKA receptor sourced from Invitrogen (see table below). This activity-assay measures the phosphorylation of tyrosine residues within a substrate from the HTRF kit which has been validated by Cisbio for a variety of tyrosine kinases including the TRK receptors.
0.5 mM stock solutions of test compounds are prepared and serially diluted in 100% DMSO. […] Greiner low volume black plates containing 0.2 ul of serially diluted compound, standard and HPE/ZPE are created using the Bravo nanolitre dispenser. 1× enzyme buffer is prepared from 5× Enzymatic Buffer from the Cisbio KinEASE TK kit using MilliQ water. The buffer is then supplemented with 10 mM MgCl and 2 mM DTT (both from Sigma). […] 2×FAC of enzyme and 2×FAC ATP diluted in 1× complete enzyme buffer is incubated at room temperature for 20 minutes to preactivate the enzyme. Following this preactivation step, 5 ul/well of enzyme+ATP mix is added using a Multidrop Micro to the assay plate, spotted with 0.2 ul 100% DMSO compound. This is left for 20 mins at room temperature before adding 5 ul of 2 uM TK-substrate-Biotin (from the Cisbio kit) diluted in 1× enzyme buffer (1 uM FAC) using the Multidrop Micro. The reaction is incubated at room temperature for the optimized assay reaction time (see table).
After the Detection Reagent addition, plates are covered and incubated at room temperature for 60 minutes. HTRF signal is read using an Envision reader, measured as a ratio of emissions at two different wavelengths, 620 nm and 665 nm. […] Test compound data are expressed as percentage inhibition defined by HPE and ZPE values for each plate.
Percentage inhibition in the presence of test compound is plotted against compound concentration on a log scale to determine an IC50 from the resultant sigmoid curve. Cell Based Assays were carried out using Cell lines from DiscoveRx utilising their PathHunter technology and reagents in an antagonist assay:
Where more than one reading was taken, the arithmetic mean is presented.

Q: `CNC(=O)c1cnc(N)c(OC2CN(C(=O)Cc3ccc(OC(F)(F)F)cc3)CC23CC3)c1` (stereo not drawn) [Example 16, 6-amino-N-methyl-5-[(5-{[4-(trifluoromethoxy)phenyl]acetyl}-5-azaspiro[2.4]hept-7-yl)oxy]pyridine-3-carboxamide] was tested. Which IC50 did it give?
A: 72.4 nM

Q: `CNC(=O)c1cnc(N)c(OC2CN(C(=O)Cc3ccc(OC(F)(F)F)cc3)CC2(C)OC)c1` (racemic) [Example 24, Racemic-6-amino-5-[(4-methoxy-4-methyl-1-{[4-(trifluoromethoxy)phenyl]acetyl}pyrrolidin-3-yl)oxy]-N-methylpyridine-3-carboxamide] was tested. Which IC50 did it give?
A: 55.5 nM

Q: `CNC(=O)c1cnc(N)c(O[C@H]2CN(C(=O)Cc3ccc(OC(F)(F)F)cc3)C[C@@H]2C)c1` [Example 17, (3R,4S)-6-amino-N-methyl-5-[(4-methyl-1-{[4-(trifluoromethoxy)phenyl]acetyl}pyrrolidin-3-yl)oxy]pyridine-3-carboxamide] was tested. Which IC50 did it give?
A: 105 nM

Q: Which IC50 does the source give for `NC(=O)c1cnc(N)c(COC2CN(C(=O)Cc3ccc(OC(F)(F)F)cc3)CC2(F)F)c1` (single isomer, unassigned) [Example 5] here?
A: 10.8 nM

Q: How did the IC50 turn out when `C[C@H]1CN(C(=O)Cc2ccc(OC(F)(F)F)cc2)C[C@@H]1Oc1cc(C(=O)NCC#N)cnc1N` [Example 22, (3R,4S)-6-amino-N-(cyanomethyl)-5-[(4-methyl-1-{[4-(trifluoromethoxy)phenyl]acetyl}pyrrolidin-3-yl)oxy]pyridine-3-carboxamide] was run?
A: 330 nM

Q: Which IC50 does the source give for `NC(=O)c1cnc(N)c(COC2CN(C(=O)Cc3ccc(OC(F)(F)F)cc3)CC2(F)F)c1` (single isomer, unassigned) [Example 6] here?
A: 630 nM

Q: With `CC(C)(O)CNC(=O)c1cnc(N)c(OC2CN(C(=O)Cc3ccc(OC(F)(F)F)cc3)CC2(F)F)c1` (racemic) [Example 10, (S)-6-amino-5-[(4,4-difluoro-1-{[4-(trifluoromethoxy)phenyl]acetyl}pyrrolidin-3-yl)oxy]-N-(2-hydroxy-2-methylpropyl)pyridine-3-carboxamide] as the compound, how does the IC50 read?
A: 8660 nM

Q: For `Nc1ncc(C(=O)NCCO)cc1OC1CN(C(=O)Cc2ccc(OC(F)(F)F)cc2)CC1(F)F` (single isomer, unassigned) [Example 8], which IC50 is on record?
A: 148 nM

Q: How did the IC50 turn out when `CCNC(=O)c1cnc(N)c(O[C@H]2CN(C(=O)Cc3ccc(OC(F)(F)F)cc3)C[C@@H]2C)c1` [Example 21, (3R,4S)-6-amino-N-ethyl-5-[(4-methyl-1-{[4-(trifluoromethoxy)phenyl]acetyl}pyrrolidin-3-yl)oxy]pyridine-3-carboxamide] was run?
A: 126 nM

Q: `NC(=O)c1cnc(N)c(OC2CN(C(=O)Cc3ccc(OC(F)(F)F)cc3)CC23CC3)c1` (stereo not drawn) [Example 18, 6-amino-5-[(5-{[4-(trifluoromethoxy)phenyl]acetyl}-5-azaspiro[2.4]hept-7-yl)oxy]pyridine-3-carboxamide] was tested. Which IC50 did it give?
A: 110 nM

Q: Which IC50 does the source give for `NC(=O)c1cnc(N)c(OCC2CN(C(=O)Cc3ccc(OC(F)(F)F)cc3)CC2(F)F)c1` (single isomer, unassigned) [Example 15] here?
A: 15.8 nM

Q: For `CC1(C)CN(C(=O)Cc2ccc(OC(F)(F)F)cc2)C[C@@H]1Oc1cc(C(N)=O)cnc1N` [Example 19, (R)-6-amino-5-[(4,4-dimethyl-1-{[4-(trifluoromethoxy)phenyl]acetyl}pyrrolidin-3-yl)oxy]pyridine-3-carboxamide], which IC50 is on record?
A: 11.8 nM

Q: Which IC50 does the source give for `CNC(=O)c1cnc(N)c(OCC2CN(C(=O)Cc3ccc(OC(F)(F)F)cc3)CC2(F)F)c1` (single isomer, unassigned) [Example 11] here?
A: 11.6 nM

Q: With `CNC(=O)c1cnc(N)c(OCC2CN(C(=O)Cc3ccc(OC(F)(F)F)cc3)CC2(F)F)c1` (single isomer, unassigned) [Example 12] as the compound, how does the IC50 read?
A: 1250 nM

Q: How did the IC50 turn out when `C[C@H]1CN(C(=O)Cc2ccc(OC(F)(F)F)cc2)C[C@@H]1Oc1cc(C(=O)NCC(C)(C)O)cnc1N` [Example 23, (3R,4S)-6-amino-N-(2-hydroxy-2-methylpropyl)-5-[(4-methyl-1-{[4-(trifluoromethoxy)phenyl]acetyl}pyrrolidin-3-yl)oxy]pyridine-3-carboxamide] was run?
A: 2100 nM

Q: Which IC50 does the source give for `NC(=O)c1cnc(N)c(OCC2CN(C(=O)Cc3ccc(OC(F)(F)F)cc3)CC2(F)F)c1` (racemic) [Example 13, Racemic-6-amino-5-[(4,4-difluoro-1-{[4-(trifluoromethoxy)phenyl]acetyl}pyrrolidin-3-yl)methoxy]pyridine-3-carboxamide] here?
A: 30.3 nM

Q: `CNC(=O)c1cnc(N)c(O[C@H]2CN(C(=O)Cc3ccc(OC(F)(F)F)cc3)CC2(C)C)c1` [Example 20, (R)-6-amino-5-[(4,4-dimethyl-1-{[4-(trifluoromethoxy)phenyl]acetyl}pyrrolidin-3-yl)oxy]-N-methylpyridine-3-carboxamide] was tested. Which IC50 did it give?
A: 12.3 nM

Q: Which IC50 does the source give for `CCN(CC)C(=O)c1cnc(N)c(OC2CN(C(=O)Cc3ccc(OC(F)(F)F)cc3)CC2(C)OC)c1` (racemic) [Example 25, Racemic-6-amino-N,N-diethyl-5-[(4-methoxy-4-methyl-1-{[4-(trifluoromethoxy)phenyl]acetyl}pyrrolidin-3-yl)oxy]pyridine-3-carboxamide] here?
A: 129 nM
